# Measured values from patent US20190388387A1, “COMPOSITION FOR INHIBITING MYOFIBROSIS” (SUNTORY HOLDINGS LIMITED, priority 2017, published 2019).
# Tests used:
# [1] = tested on: rat skeletal muscle-derived muscle satellite cells; test: Morphological changes of muscle satellite cells to myofibroblasts under TGF β fibrosis induction (Masson's Trichrome staining); assay type: cell-based; conditions: TGF β 1 ng/mL
# Description: Gastrocnemius, soleus, plantaris muscle, tibialis anterior, extensor digitorum longus, and quadriceps were extracted from male Fischer 344 rats of 9 to 15 weeks old under anesthesia, and minced in phosphate buffered saline (PBS) (Life Technologies Corporation) on ice. The minced muscle tissue was enzymatically degraded by Protease (Sigma-Aldrich) at 37° C., and then centrifuged repeatedly, whereby the muscle satellite cells were isolated. The muscle satellite cells were suspended in Dulbecco's Modified Eagle Medium (DMEM) containing 10% fetal equine serum, and cultured for 24 hours. After culturing, centrifugation was performed again, and the deposited muscle satellite cells were seeded onto an 8-well slide glass (Thermo Fisher Scientific) to a density of 5×10^4 to 7×10^4 cells/mL in F-10 medium (Gibco) containing 20% bovine serum. After seeding, the muscle satellite cells were cultured for 72 hours or 120 hours. The muscle satellite cells for tissue staining were cultured for 72 hours, and muscle satellite cells for genetic analysis were cultured for 120 hours to provide enough cells. In the case of the muscle satellite cells to be cultured for 120 hours, the F-10 medium containing 20% bovine serum was replaced 72 hours after seeding. After the culturing for 72 hours or 120 hours, the muscle satellite cells were cultured in a differentiation-inducing medium for 24 hours. The differentiation-inducing medium was a medium in which a TGF β (TGF-β) signal inhibitor, quercetin, or solvent was added in an amount shown in Table 1 to Dulbecco's Modified Eagle Medium (DMEM) containing 2% fetal equine serum. TGF β (Sigma-Aldrich) was used for fibrosis induction. The compound was added to the differentiation-inducing medium using HCl as solvent to a final concentration of 1 ng/mL. TGF β was added when a TGF β signal inhibitor or quercetin was added. The TGF β signal inhibitor was SB525334 (6-[2-tert-butyl-5-(6-methyl-pyridin-2-yl)-1H-imidazol-4-yl]-quinoxaline available from Wako Pure Chemical Industries, Ltd.). […]
# Acta2 gene = test: Fibrosis marker gene expression analysis (quantitative PCR), Acta2 gene; assay type: cell-based, rat; conditions: TGF β 1 ng/mL, 24 hours, Dunnett's test vs. TGF β(+), FIG. 2(a)
# Description: (§1) Gastrocnemius, soleus, plantaris muscle, tibialis anterior, extensor digitorum longus, and quadriceps were extracted from male Fischer 344 rats of 9 to 15 weeks old under anesthesia, and minced in phosphate buffered saline (PBS) (Life Technologies Corporation) on ice. The minced muscle tissue was enzymatically degraded by Protease (Sigma-Aldrich) at 37° C., and then centrifuged repeatedly, whereby the muscle satellite cells were isolated. The muscle satellite cells were suspended in Dulbecco's Modified Eagle Medium (DMEM) containing 10% fetal equine serum, and cultured for 24 hours. After culturing, centrifugation was performed again, and the deposited muscle satellite cells were seeded onto an 8-well slide glass (Thermo Fisher Scientific) to a density of 5×10^4 to 7×10^4 cells/mL in F-10 medium (Gibco) containing 20% bovine serum. After seeding, the muscle satellite cells were cultured for 72 hours or 120 hours. […] The cDNAs obtained by reverse transcription reaction was subjected to quantitative PCR in Step One Plus Real Time PCR System using TaqMan Fast Universal PCR Mastermix (Life Technologies Corporation). The expression levels of Colla1 gene and Acta2 gene as a myofibroblast marker were measured. For quantitative PCR, the cells were first maintained at 95° C. for 20 seconds, and then subjected to 40 cycles of reaction at 95° C. for 1 second and 60° C. for 20 seconds. […]
# Colla1 gene = test: Fibrosis marker gene expression analysis (quantitative PCR), Colla1 gene; assay type: cell-based, rat; conditions: TGF β 1 ng/mL, 24 hours, FIG. 2(b)
# Description: as §1
smiles,measurement,setting,value
O=c1c(O)c(-c2ccc(O)c(O)c2)oc2cc(O)cc(O)c12 [quercetin],morphological changes of muscle satellite cells to myofibroblast-like cells,"[1]; quercetin 50 μM, 24 hours, vs. TGF β-added group, FIG. 1(d)",more inhibited
same,morphological changes of muscle satellite cells to myofibroblasts,"[1]; quercetin 100 μM, 24 hours, vs. 50-μM quercetin-added group, FIG. 1(e)",stronger effect of inhibiting morphological changes
same,expression of Acta2 gene,Acta2 gene; quercetin 100 μM,significantly inhibited
same,expression of Colla1 gene,Colla1 gene; quercetin 50 μM and 100 μM,inhibited in a concentration-dependent manner
"Cc1cccc(-c2[nH]c(C(C)(C)C)nc2-c2ccc3nccnc3c2)n1 [SB525334, 6-[2-tert-butyl-5-(6-methyl-pyridin-2-yl)-1H-imidazol-4-yl]-quinoxaline, reference compound]",TGF β-induced morphological changes of muscle satellite cells to myofibroblasts,"[1]; SB525334 1 μM, 24 hours in differentiation-inducing medium, FIG. 1(c)",clearly inhibited
same,expression of Acta2 gene,Acta2 gene; SB525334 1 μM,significantly inhibited
same,expression of Colla1 gene,"Colla1 gene; SB525334 1 μM, Dunnett's test vs. TGF β(+)",significantly inhibited
